Molecules are shown by their SMILES.

This note sets out measurements from patent US20250154165A1, “MULTIANTENNARY GLYCOLIPID MIMETICS” (CONSEJO SUPERIOR DE INVESTIGACIONES CIENTÍFICAS (CSIC), priority 2021, published 2025).

The subject of one data set is p38. In words: Signal transduction by multiplex bead array: p38 phosphorylation. Type of data set: cell-based. The conditions noted are these: comparing to LPS treatment alone (FIG. 4). The text has this:
(§1) FIG. 4. […] Compound 12, a representative compound of the invention, was examined in term of signal transduction to explore how the new compounds exert their suppressive effect, using the multiplex bead array.
(§2) Using the multiplex bead array, we examined how the new compounds might exert their suppressive effect in term of signal transduction.

Data set [1] relates to glycosidases of human fibroblast lysates. In words: Stability of the glycosidic linkage to glycosidases upon incubation with human fibroblast lysates. The format is in vitro ADME. The conditions noted are these: 4 h, 37° C., compound solution 200 μM, 0.1 M citrate buffer pH 4.5. As to the method:
The stability of the glyosidic linkage in compounds 2, 4, 6, 8, 10, 12, 14, 16, 18, 20, 22, 23, 25, 27 and 29, selected as representative examples, upon incubation with human fibroblast lysates for 4 h was checked. For such purpose, cells were scraped into ice-cold H2O (10^6 cells mL^−1) and lysed by sonication. Insoluble materials were removed by centrifugation at 15,000 rpm for 5 min and protein concentrations were determined with Protein Assay Rapid Kit (WAKO, Tokyo, Japan). 10 μL of the lysates in 0.1% Triton X-100 in distilled water were incubated at 37° C. with 20 μL of the compound solution (200 μM) in 0.1 M citrate buffer, pH 4.5. In control experiments, the activity of several lysosomas glycosidases was confirmed using fluorescent substrates. The substrates were 4-methylumbelliferone (4-MU)-conjugated β-D-glucopyranoside (for GCase), α-D-glucopyranoside (for α-glucosidase), α-D-galactopyranoside (for α-Galase) and β-D-galactopyranoside (for β-galactosidase). The liberated 4-methylumbelliferone was measured in the black-well plate with a Perkin Elmer Luminescence Spectrometer (excitation wavelength: 340 nm; emission: 460 nm).

The next data set relates to JNK. In words: Signal transduction by multiplex bead array: JNK phosphorylation. The conditions noted are these: comparing to LPS treatment alone (FIG. 4). Type of data set: cell-based.
From the text: as §1, §2

Data set [2] relates to CD8+ T cells in the spleen, OT-1 adoptive transfer mouse model. In words: Th1 immune response in vivo (CD8+ T cell proliferation, OT-1 adoptive transfer mouse model). To be noted: OT-1 adoptive transfer mouse model (FIG. 13). As to the method: FIG. 13. […] The adjuvancy capability of selected compounds 12 and 27 in vivo was assessed by their capability in promoting the proliferation of CD8^+ T cells in the spleen in the OT-1 adoptive transfer mouse model as described in the scheme.
(§3) For ovalbumin (OVA) challenge, mice were sensitized intraperitoneally (i.p.) with 50 μg of OVA with 2% alhydrogel adjuvant (InvivoGen). Mice were challenged three times with 50 μg of OVA on day 7 post-sensitization, either daily or every other day. Mice were sacrificed the day after the last OVA challenge. The scheme of the OT-1 adoptive transfer mouse model for examining the proliferation of CD8^+ T cells in adjuvanting OVA challenge is described in FIG. 13.
Compounds 12 and 27 were injected into OT-1 mice (transgenic mice that express a TCR that is specific for an ovalbumin OVA peptide) to validate the Th1-biased immunomodulation property.

Data set [3] deals with BMDC from MyD88 deficient mice. In words: MyD88 dependency of BMDC maturation. The format is cell-based. The conditions noted are these: BMDC from MyD88 deficient mice (FIG. 16). An excerpt:
(§4) To determine whether the adjuvancy function of the representative compound 12 is MyD88-dependent or not, we performed experiments with immune cells isolated from MyD88 knocked-out (KO) mice. […] Data are dose-dependent and differences become more pronounced at the higher concentrations. […] Taken together, the results support that compound 12 adjuvancy function is MyD88-dependent.

Data set [4] relates to splenocytes isolated from MyD88 KO mice. In words: MyD88 dependency of cytokine induction (splenocytes from MyD88 KO mice in vitro). Type of data set: cell-based.
From the text: FIG. 14. […] The dependency of the compounds of the invention on functional MyD88 for biological function was examined using the representative compound 12, with immune cells isolated from MyD88 knocked-out mice. […] IL-4 was not detectable with compound 12 treatment, indicating a Th1-biased property.
as §4

A further data set concerns ERK. In words: Signal transduction by multiplex bead array: ERK phosphorylation. To be noted: comparing to LPS treatment alone (FIG. 4). Type of data set: cell-based.
From the text: as §1, §2

The test system of data set [5] is OVA-induced AHR mouse model. In words: Suppression of OVA-induced airway hyperreactivity (AHR) in vivo. The conditions noted are these: OVA-induced AHR mouse model (FIG. 7). As to the method:
FIG. 7. […] The capability of selected compounds 8, 12, 18, and 27 in suppressing Th2 inflammation in vivo was assessed using the OAV-induced AHR mouse model.
as §3
Mice were anesthetized with 100 mg per kg body weight pentobarbital (Sigma-Aldrich), tracheotomised and mechanically ventilated via the FinePointe RC system (Buxco Research Systems, Wilmington, NC). Lung function was assessed by measuring lung resistance and dynamic compliance in response to increasing doses of aerosolized methacholine (1.25-40 mg/mL, Sigma-Aldrich).
Using the Th2 OVA-induced AHR mouse model, we assessed the capability of selected compounds 8, 12, 18, and 27 in suppressing Th2 inflammation.

Data set [6] concerns Splenocytes treated with αGalCer. In words: Suppression of αGalCer-induced inflammation (splenocytes in vitro). Type of data set: cell-based, mouse. To be noted: splenocytes treated concurrently with compound and αGalCer (FIG. 5). The procedure:
FIG. 5. […] Splenocytes were treated concurrently with the compounds of the invention and αGalCer to assess the suppressive function of compounds on αGalCer-induced inflammation, with several compounds showing prominent suppressive function.
(§5) The whole spleen was surgically removed from a mouse and mechanically dissociated into a single cell suspension of splenocytes, which were then cultured in the complete RPMI 1640 medium (cRPMI). Human peripheral blood mononuclear cells (PBMCs) from healthy volunteers were collected from whole blood through gradient-centrifugation with Histopaque-1077 (Sigma-Aldrich).
Splenocytes were treated concurrently with the compounds of the invention and αGalCer to assess their ability to suppress αGalCer-induced inflammation.

For a further data set, the system named is STAT3. In words: Signal transduction by multiplex bead array: STAT3 phosphorylation. The conditions noted are these: comparing to LPS treatment alone (FIG. 4). Type of data set: cell-based.
From the text: as §1, §2

In data set [7] the test system is bone marrow-derived macrophages (BMDM) treated with LPS. In words: Suppression of LPS-induced inflammation in bone marrow-derived macrophages (BMDM in vitro). Type of data set: cell-based. The conditions noted are these: BMDM (FIG. 2). An excerpt: Since macrophage is the major responder to LPS-induced inflammation, we assessed the capability of selected compounds to suppress LPS-induced inflammation in bone marrow-derived macrophages (BMDM).

The test system of data set [8] is Splenocytes treated with LPS. In words: Suppression of LPS-induced inflammation (splenocytes in vitro). The format is cell-based, mouse. The conditions noted are these: splenocytes treated concurrently with compound and LPS (FIG. 1). The procedure: FIG. 1. […] Splenocytes were treated concurrently with the compounds of the invention and LPS to assess the suppressive function of compounds on LPS-induced inflammation, with several compounds showing prominent suppressive function.
as §5
Splenocytes were treated concurrently with the compounds of the invention and LPS to assess the suppressive function of compounds on LPS-induced inflammation.

As to `CCCCCCCCCCCCNC(=O)C(COC1C(O)C(O)C(O)C2COC(=O)N21)NC(=O)CCCCCCCCCCC` (stereo not drawn) [Compound 12], the “phosphorylation of p38” value in the data set with p38 is listed as “significantly reduced”. Further, in data set [1], the “hydrolysis of the glycolipid mimetic (free polysubstituted 2-oxa-3-oxoindolizidine detected by gas chromatography)” value is recorded as “No traces of the free polysubstituted 2-oxa-3-oxoindolizidine”. The “phosphorylation of JNK” value in the data set on JNK was “not JNK”. Moreover, the “proliferation of CD8+ T cells in the spleen” value in data set [2] is reported as “significant CD8^+ T cell proliferation”. In addition, the “maturation of BMDC induced by compound treatment” value in [3] is “impeded”. Also, the “ability to induce IFNγ” value in data set [4] (splenocytes isolated from MyD88 KO mice (FIG. 14)) is reported as “completely abrogated”. Besides, the IL-4 induction result in data set [4] (splenocytes, MyD88 experiment (FIG. 14)) is on record as “no IL-4 induction was observed”. The “phosphorylation of ERK” value in the data set on ERK is given as “significantly reduced”. Further, the “suppression of airway hyperreactivity (AHR)” value in [5] is reported as “can suppress AHR onset”. Also, in data set [6], the “suppressive function on αGalCer-induced inflammation” value was “prominent inflammation-suppressing function”. The “phosphorylation of STAT3” value in the data set with STAT3 is given as “significant reduction of phosphorylation”. For the same compound, in data set [7], the “suppression of LPS-induced inflammation” value is listed as “particularly efficient in suppressing LPS-induced inflammation”. Moreover, in [7] (LPS-induced), the “suppression of IL-6” value is “significant suppression” and the “suppression of TNFα” value is “significant suppression”. Besides, the “suppressive function on LPS-induced inflammation” value in data set [8] is listed as “prominent inflammation-suppressing function”.
